# Assay results: ChEMBL document CHEMBL1156733, “Structure-activity relationship studies on a series of piperazinebenzylalcohols and their ketone and amine analogs as melanocortin-4 receptor ligands” (Bioorg Med Chem Lett, 2008)
# Tests used:
# [1] = Ratio of drug level in brain to plasma in rat at 5 mg/kg, iv after 1 hr; assay type: ADME, organism-based; design: dose 5 mg/kg, route intravenous
# Melanocortin receptor 3 = Melanocortin receptor 3 (Homo sapiens, UniProt P41968); assay: Binding affinity to MC3 receptor
# Sequence of Melanocortin receptor 3 (P41968 whole entry): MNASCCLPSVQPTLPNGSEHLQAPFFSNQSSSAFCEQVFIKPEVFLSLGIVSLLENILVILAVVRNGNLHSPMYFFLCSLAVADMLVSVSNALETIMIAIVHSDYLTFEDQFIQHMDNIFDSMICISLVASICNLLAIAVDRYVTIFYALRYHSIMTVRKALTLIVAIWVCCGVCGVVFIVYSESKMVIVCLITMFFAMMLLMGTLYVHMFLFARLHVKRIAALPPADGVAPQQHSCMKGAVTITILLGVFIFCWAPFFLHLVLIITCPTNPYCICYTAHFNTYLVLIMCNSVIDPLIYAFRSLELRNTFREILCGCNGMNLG
# [2] = Volume of distribution in rat at 5 mg/kg, iv; assay type: ADME, organism-based; design: dose 5 mg/kg, route intravenous; settings: in vivo
# [3] = Metabolic stability assessed as intrinsic clearance in human liver microsomes; assay type: ADME, Microsome
# [4] = AUC in rat at 10 mg/kg, po; assay type: ADME, organism-based; design: dose 10 mg/kg, route oral; settings: plasma
# [5] = Half life in rat at 5 mg/kg, iv; assay type: ADME, organism-based; design: dose 5 mg/kg, route intravenous; settings: in vivo
# Melanocortin receptor 5 = Melanocortin receptor 5 (Homo sapiens, UniProt P33032); assay: Binding affinity to MC5 receptor
# Sequence of Melanocortin receptor 5 (P33032 whole entry): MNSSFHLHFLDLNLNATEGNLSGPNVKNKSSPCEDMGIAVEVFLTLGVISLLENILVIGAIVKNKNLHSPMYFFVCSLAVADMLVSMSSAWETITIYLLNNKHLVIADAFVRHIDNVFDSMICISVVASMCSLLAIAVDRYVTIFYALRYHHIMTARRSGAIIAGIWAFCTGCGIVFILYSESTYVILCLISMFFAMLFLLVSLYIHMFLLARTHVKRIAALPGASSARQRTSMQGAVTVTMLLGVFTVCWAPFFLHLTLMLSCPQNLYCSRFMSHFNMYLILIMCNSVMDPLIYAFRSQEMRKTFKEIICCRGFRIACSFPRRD
# Melanocortin receptor 4 [6] = molecular target: T1, Melanocortin receptor 4 (Homo sapiens, UniProt P32245)
# T1 sequence (P32245 whole entry): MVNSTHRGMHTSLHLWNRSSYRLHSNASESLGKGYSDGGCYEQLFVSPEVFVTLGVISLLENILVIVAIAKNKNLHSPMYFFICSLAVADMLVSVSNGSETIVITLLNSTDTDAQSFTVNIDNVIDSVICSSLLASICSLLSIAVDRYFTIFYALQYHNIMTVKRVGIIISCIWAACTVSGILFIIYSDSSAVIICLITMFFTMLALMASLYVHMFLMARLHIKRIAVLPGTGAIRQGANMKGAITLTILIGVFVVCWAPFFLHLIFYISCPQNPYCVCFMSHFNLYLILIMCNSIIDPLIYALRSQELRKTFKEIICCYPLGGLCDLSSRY
# Description: Binding affinity to human MC4 receptor
# Brain = assay: Drug level in rat brain rat at 5 mg/kg, iv; assay type: ADME, organism-based; design: dose 5 mg/kg, route intravenous; settings: in vivo
# [7] = Oral bioavailability in rat at 10 mg/kg; assay type: ADME, organism-based; settings: in vivo
# [8] = Plasma clearance in rat at 5 mg/kg, iv; assay type: ADME, organism-based; design: dose 5 mg/kg, route intravenous
# [9] = Lipophilicity, log D of the compound; assay type: physicochemical; settings: octanol/water
# Melanocortin receptor 4 [10] = molecular target: T1, Melanocortin receptor 4; assay: Antagonist activity at human MC4 receptor expressed in cells assessed as inhibition of alpha-MSH-stimulated cAMP production; assay type: functional, cell-based
compound,measurement,setting,value
CC(C)CC(O)c1ccccc1N1CCN(C(=O)[C@@H](Cc2ccc(Cl)cc2Cl)NC(=O)CCN)CC1 (stereo partly drawn),Kp at 1 h,[1],0.53
same,Ki,Melanocortin receptor 3,1700 nM
same,Vd,[2],42.3 L/kg
same,CLint scaled,[3],14.7 mL/min/kg
same,AUC,[4],30 ng·h/mL
same,half-life,[5],7.6 h
same,Ki,Melanocortin receptor 5,970 nM
same,Ki,Melanocortin receptor 4 [6],8.1 nM
same,Drug uptake,Brain,117 ng/g
same,bioavailability,[7],1.2%
same,clearance,[8],64.5 mL/min/kg
same,logD,[9],2.2
same,IC50,Melanocortin receptor 4 [10],260 nM
